The record followed here is patent US20060281791A1, “Methods of increasing proliferation of adult mammalian cardiomyocytes through p38 map kinase inhibition” (CHILDREN'S MEDICAL CENTER CORPORATION, priority 2005, published 2006).

This test relates to myocardial infarction in adult rats. As to the kind of experiment: Fractional shortening (echocardiography) after myocardial infarction. The test is classed as in vivo, rat. The protocol: The p38 inhibitors were tested for in vivo effect following myocardial infarct. For the evaluation of left ventricular function, transthoracic echocardiogram can be performed on the rats after myocardial infarction 1 day or 14 days right. Rats can be anesthetized with 4-5% isoflurane in an induction chamber. The chest can be shaved, and the rats can be placed in dorsal decubitus position and intubated for continuous ventilation. 1-2% isoflurane can be continuously supplied via a mask. 3 electrodes can be adhered to their paws to record the electrocardiographic tracing simultaneously with the cardiac image identifying the phase of a cardiac cycle.
Echocardiograms can be performed with a commercially available echocardiography system equipped with 7.5 MHz phased-array transducer (Philips-Hewlett-Packard). The transducer can be positioned on the left anterior side of the chest. Longitudinal images of the heart can be obtained, including the left ventricle, atrium, the mitral valve and the aorta, followed by the cross-sectional images from the plane of the base to the left ventricular apical region. M-mode tracings can be obtained at the level below the tip of the mitral valve leaflets at the level of the papillary muscles. Fractional shorting (FS) can be calculated as a measure of systolic function, according to the M-mode tracing from the cross-sectional view: maximal LV end-diastolic diameter (at the time of maximal cavity dimension), minimal LV end-systolic diameter (at the time of maximum anterior motion of the posterior wall), FS (%)={(LVEDD−LVESD)/LVEDD}×100.
To determine whether p38 inhibition/FGF1 stimulation can induce cardiomyocyte proliferation in vivo and whether it has a positive effect on cardiac function after cardiac injury we created myocardial infarctions (MI) in adult rats (250 g) by coronary artery ligation. The p38 inhibitor SB203580 HCl or its vehicle, saline, were injected intraperitoneal every three days for the first month of the study. FGF1 or its carrier BSA was injected mixed with self-assembling peptides once into the infarct border zone immediately after coronary artery ligation. We injecting a total of 80 μl of 400 ng/ml FGF1, given at 3 different injection sites, into 400 mg of infarcted myocardium estimated to deliver a FGF 1 concentration to the cardiomyocytes of approximately 50 to 100 ng/ml. Animals were analyzed 24 hours, 2 weeks, and 3 month after surgery. We performed two blinded and randomized studies using 62 rats for the 2 week and 61 rats for the 3 month experiment, with at least 10 animals in each experimental group. Animals were treated with saline plus BSA (control), SB203580 HCl plus BSA (p38i), saline plus FGF1 (FGF1), or SB203580 HCl plus FGF1 (p38i/FGF1).
Animal experiments were performed in accordance with guidelines of Children's Hospital in Boston and were approved by the Harvard Medical School Standing Committee on Animals. Myocardial infarction (MI) was produced in ˜250 gm male Sprague-Dawley rats (Charles River and Harlan) as described previously (Hsieh et al., 2006). Briefly, rats were anesthetized by pentobarbital and, following tracheal intubation, the hearts were exposed via left thoracotomy. The left coronary artery was identified after pericardiotomy and was ligated by suturing with 6-0 prolene at the location ˜3mm below the left atrial appendix. For the sham operation, suturing was performed without ligation. […]

For FGF1: growth factor FGF1 (R&D Systems), the “improvement of fractional shortening” value reads like this: (3 month after infarction) “maintained”; (day 14 after infarction) “maintained”. Moreover, under “24 hours after MI”, the “left ventricular fractional shortening” value was “significantly improved”.
